Results taken from patent US20230072421A1, “TARGETED RADIOPHARMACEUTICALS FOR THE DIAGNOSIS AND TREATMENT OF PROSTATE CANCER” (Bayer AS, priority 2019, published 2023).

Legend:
[1] = Biodistribution study in LNCaP tumor-bearing mice (Th227 counted in organs); type: in vivo, SCID mice
How it was run: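 SCID mice bearing testosterone pellets and subcutaneous LNCaP flank tumors (~50 mm^2) received a single intravenous dose of the radioactive compound. At set time points, n=3 animals were sacrificed, and organs were removed, weighed and counted for Th227 on a Germanium detector.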

[2] = system: LNCaP cells; assay: Cell proliferation assay (CellTiter-Glo, 5-day exposure), LNCaP; type: cell-based, human; settings: LNCaP, 1000 cells/well; Th-227 labelled at 375 kBq/nmol; 5-day exposure; mean of 1 to 6 experiments
How it was run: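 Prostate cancer lines are exposed for 5 days to serially diluted Thorium-227 labeled PSMA ligands at 375 kBq/nmol, with viability of treated and untreated cells measured by CellTiter-Glo. Baseline viability is taken in parallel plates when treatment starts.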

[3] = system: C4-2 cells; assay: Cell proliferation assay (CellTiter-Glo, 5-day exposure), C4-2; type: cell-based; settings: C4-2, 1000 cells/well, Th-227 labelled at 375 kBq/nmol, mean of 1 to 6 experiments
How it was run: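 Thorium-227-labeled PSMA small-molecule ligands were applied for 5 days to prostate cancer lines plated overnight at 1000 cells/well (22Rv1, C4-2, LNCaP) or 4000 cells/well (VCaP). CellTiter-Glo luminescence gave viability at day 0 in sister plates and again after exposure.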

With O=C([O-])CN1CCN(CC(=O)[O-])CCN(CC(=O)NCC2CCC(C(=O)NC(Cc3ccc4ccccc4c3)C(=O)NCCCCC(NC(=O)NC(CCC(=O)O)C(=O)O)C(=O)O)CC2)CCN(CC(=O)[O-])CC1.[227Th+4] [Example 1-B-227Th, [^227Th]Thorium (3S,10S,14S)-3-[(naphthalen-2-yl)methyl]-1,4,12-trioxo-1-{(1r,4S)-4-[(2-{4,7,10-tris[(carboxy-kappaO)methyl]-1,4,7,10-tetraazacyclododecan-1-yl-kappa^4N^1,N^4,N^7,N^10}acetamido)methyl]cyclohexyl}-2,5,11,13-tetraazahexadecane-10,14,16-tricarboxylate] the “Th-227 in Tumor” value ([1]; 6 hr, 500 kBq/kg, study b2999) was 9.80 % ID Th-227/g organ, the “Th-227 in prostate” value ([1]; 6 hr, 500 kBq/kg, study b2999) was 6.41 % ID Th-227/g organ and the “Th-227 in Blood” value ([1]; 24 h, 500 kBq/kg, study b2999) was 0.01 % ID Th-227/g organ. For the same molecule, the “Th-227 in Femur and tibia” value ([1]; 24 h, 500 kBq/kg, study b2999) was 0.23 % ID Th-227/g organ, the “Th-227 in Kidneys” value ([1]; 24 h, 500 kBq/kg, study b2999) was 26.81 % ID Th-227/g organ and the “Th-227 in Liver” value ([1]; 24 h, 500 kBq/kg, study b2999) was 0.18 % ID Th-227/g organ. The “Th-227 in Salivary gland” value ([1]; 24 h, 500 kBq/kg, study b2999) was 1.24 % ID Th-227/g organ, the “Th-227 in Spleen” value ([1]; 24 h, 500 kBq/kg, study b2999) was 0.33 % ID Th-227/g organ and the “Th-227 in Tumor” value ([1]; 24 h, 500 kBq/kg, study b2999) was 14.45 % ID Th-227/g organ. The “Th-227 in prostate” value ([1]; 24 h, 500 kBq/kg, study b2999) was 0.00 % ID Th-227/g organ, the Th-227 in Blood ([1]; 24 h, 1500 kBq/kg) was 0.02% ID Th-227/g organ and the Th-227 in Liver ([1]; 24 h, 1500 kBq/kg) was 1.05% ID Th-227/g organ. It also gave a Th-227 in Spleen ([1]; 24 h, 1500 kBq/kg) of 1.24% ID Th-227/g organ, a Th-227 in Tumor ([1]; 24 h, 1500 kBq/kg) of 9.81% ID Th-227/g organ and a Th-227 in bone ([1]; 24 h, 1500 kBq/kg) of 9.38% ID Th-227/g organ. For the same molecule, the Th-227 in brain ([1]; 24 h, 1500 kBq/kg) was 0.00% ID Th-227/g organ, the Th-227 in kidney ([1]; 24 h, 1500 kBq/kg) was 11.30% ID Th-227/g organ and the “Th-227 in large intestine” value ([1]; 24 h, 1500 kBq/kg) was 0.12% ID Th-227/g organ. For the same molecule, the Th-227 in lung ([1]; 24 h, 1500 kBq/kg) was 0.50% ID Th-227/g organ, the Th-227 in muscle ([1]; 24 h, 1500 kBq/kg) was 0.16% ID Th-227/g organ and the Th-227 in prostate ([1]; 24 h, 1500 kBq/kg) was 0.00% ID Th-227/g organ. For the same molecule, the “Th-227 in salivary glands” value ([1]; 24 h, 1500 kBq/kg) was 0.32% ID Th-227/g organ, the “Th-227 in small intestine” value ([1]; 24 h, 1500 kBq/kg) was 0.23% ID Th-227/g organ and the “Th-227 in Blood” value ([1]; 72 h, 500 kBq/kg, study b2999) was 0.00 % ID Th-227/g organ. For the same molecule, the “Th-227 in Femur and tibia” value ([1]; 72 h, 500 kBq/kg, study b2999) was 0.33 % ID Th-227/g organ, the “Th-227 in Kidneys” value ([1]; 72 h, 500 kBq/kg, study b2999) was 19.30 % ID Th-227/g organ and the “Th-227 in Liver” value ([1]; 72 h, 500 kBq/kg, study b2999) was 0.26 % ID Th-227/g organ. For the same molecule, the “Th-227 in Salivary gland” value ([1]; 72 h, 500 kBq/kg, study b2999) was 0.73 % ID Th-227/g organ, the “Th-227 in Spleen” value ([1]; 72 h, 500 kBq/kg, study b2999) was 0.92 % ID Th-227/g organ and the “Th-227 in Tumor” value ([1]; 72 h, 500 kBq/kg, study b2999) was 21.94 % ID Th-227/g organ. For the same molecule, the “Th-227 in prostate” value ([1]; 72 h, 500 kBq/kg, study b2999) was 0.00 % ID Th-227/g organ, the Th-227 in Blood ([1]; 96 h, 1500 kBq/kg) was 0.00% ID Th-227/g organ and the Th-227 in Liver ([1]; 96 h, 1500 kBq/kg) was 1.56% ID Th-227/g organ. For the same molecule, the Th-227 in Spleen ([1]; 96 h, 1500 kBq/kg) was 2.79% ID Th-227/g organ, the Th-227 in Tumor ([1]; 96 h, 1500 kBq/kg) was 10.02% ID Th-227/g organ and the Th-227 in bone ([1]; 96 h, 1500 kBq/kg) was 10.31% ID Th-227/g organ. For the same molecule, the Th-227 in brain ([1]; 96 h, 1500 kBq/kg) was 0.00% ID Th-227/g organ, the Th-227 in kidney ([1]; 96 h, 1500 kBq/kg) was 1.96% ID Th-227/g organ and the “Th-227 in large intestine” value ([1]; 96 h, 1500 kBq/kg) was 0.12% ID Th-227/g organ. The Th-227 in lung ([1]; 96 h, 1500 kBq/kg) was 0.55% ID Th-227/g organ, the Th-227 in muscle ([1]; 96 h, 1500 kBq/kg) was 0.08% ID Th-227/g organ and the Th-227 in prostate ([1]; 96 h, 1500 kBq/kg) was 0.00% ID Th-227/g organ. For the same molecule, the “Th-227 in salivary glands” value ([1]; 96 h, 1500 kBq/kg) was 0.42% ID Th-227/g organ, the “Th-227 in small intestine” value ([1]; 96 h, 1500 kBq/kg) was 0.21% ID Th-227/g organ and the “Th-227 in Blood” value ([1]; 168 h, 500 kBq/kg, study b2999) was 0.00 % ID Th-227/g organ. For the same molecule, the “Th-227 in Femur and tibia” value ([1]; 168 h, 500 kBq/kg, study b2999) was 0.18 % ID Th-227/g organ, the “Th-227 in Kidneys” value ([1]; 168 h, 500 kBq/kg, study b2999) was 3.56 % ID Th-227/g organ and the “Th-227 in Liver” value ([1]; 168 h, 500 kBq/kg, study b2999) was 0.21 % ID Th-227/g organ. For the same molecule, the “Th-227 in Salivary gland” value ([1]; 168 h, 500 kBq/kg, study b2999) was 0.00 % ID Th-227/g organ, the “Th-227 in Spleen” value ([1]; 168 h, 500 kBq/kg, study b2999) was 0.31 % ID Th-227/g organ and the “Th-227 in Tumor” value ([1]; 168 h, 500 kBq/kg, study b2999) was 9.80 % ID Th-227/g organ. The “Th-227 in prostate” value ([1]; 168 h, 500 kBq/kg, study b2999) was 0.00 % ID Th-227/g organ, the “Th-227 in Blood” value ([1]; 336 h, 500 kBq/kg, study b2999) was 0.00 % ID Th-227/g organ and the “Th-227 in Femur and tibia” value ([1]; 336 h, 500 kBq/kg, study b2999) was 0.25 % ID Th-227/g organ. The “Th-227 in Kidneys” value ([1]; 336 h, 500 kBq/kg, study b2999) was 0.78 % ID Th-227/g organ, the “Th-227 in Liver” value ([1]; 336 h, 500 kBq/kg, study b2999) was 0.17 % ID Th-227/g organ and the “Th-227 in Salivary gland” value ([1]; 336 h, 500 kBq/kg, study b2999) was 0.00 % ID Th-227/g organ. The “Th-227 in Spleen” value ([1]; 336 h, 500 kBq/kg, study b2999) was 0.15 % ID Th-227/g organ, the “Th-227 in Tumor” value ([1]; 336 h, 500 kBq/kg, study b2999) was 7.78 % ID Th-227/g organ and the “Th-227 in prostate” value ([1]; 336 h, 500 kBq/kg, study b2999) was 0.00 % ID Th-227/g organ. The “Proliferation assay on cancer cell lines by TTCs Default Pivot #3 IC50 [kBq/mL] LnCap 1000cells 375kBq/nmol (mean)” value [2] was 0.03 kBq/mL and the “Proliferation assay on cancer cell lines by TTCs Default Pivot #3 IC50 [kBq/mL] C4-2 1000cells 375kBq/nmol (mean)” value [3] was 0.17 kBq/mL.
